Biological target: T1, recombinant human NK3 receptor (Homo sapiens, UniProt P29371)
T1 construct: expressed in transfected cells; host or cells: HEK293 cells, transient expression; membranes
T1 sequence (P29371 1-465): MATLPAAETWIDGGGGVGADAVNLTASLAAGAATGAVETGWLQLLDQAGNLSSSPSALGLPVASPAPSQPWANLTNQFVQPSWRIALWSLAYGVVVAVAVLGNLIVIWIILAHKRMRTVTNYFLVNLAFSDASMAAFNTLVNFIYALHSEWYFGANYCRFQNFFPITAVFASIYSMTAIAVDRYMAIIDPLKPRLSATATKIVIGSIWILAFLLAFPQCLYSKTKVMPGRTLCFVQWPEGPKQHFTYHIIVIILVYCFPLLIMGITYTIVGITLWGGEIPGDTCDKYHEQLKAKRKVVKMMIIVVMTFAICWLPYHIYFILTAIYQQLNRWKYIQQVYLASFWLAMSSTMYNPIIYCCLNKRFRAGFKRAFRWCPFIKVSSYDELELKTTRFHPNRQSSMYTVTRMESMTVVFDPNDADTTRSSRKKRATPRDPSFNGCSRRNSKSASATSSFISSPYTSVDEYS
Assay: [3H]SR142801 competition binding assay
Settings: not given

Compound | Ki
COC1CC(C(=O)N2CCC(C(=O)N3C[C@@H](N(C)C(=O)Oc4ccc(F)cc4)[C@H](c4ccc(Cl)cc4)C3)CC2)C1 (stereo partly drawn) [Example 251, {(3S,4R)-4-(4-Chloro-phenyl)-1-[1-(3-methoxy-cyclobutanecarbonyl)-piperidine-4-carbonyl]-pyrrolidin-3-yl}-methyl-carbamic acid 4-fluoro-phenyl ester] | 2.2 nM
CN(C(=O)Oc1ccc(F)cc1)[C@@H]1CN(C(=O)CCN2CCOCC2)C[C@H]1c1ccc(Cl)cc1 [Example 114, [(3S,4R)-4-(4-Chloro-phenyl)-1-(3-morpholin-4-yl-propionyl)-pyrrolidin-3-yl]-methyl-carbamic acid 4-fluoro-phenyl ester] | 83 nM
CN(C(=O)Oc1ccc(F)cc1)[C@H]1CN(C(=O)[C@H]2CC[C@@H](O)CC2)C[C@@H]1c1ccc(Cl)c(Cl)c1 (racemic) [Example 47, rac-[(3R,4S)-4-(3,4-Dichloro-phenyl)-1-(cis-4-hydroxy-cyclohexanecarbonyl)-pyrrolidin-3-yl]-methyl-carbamic acid 4-fluoro-phenyl ester] | 3.4 nM
CN(C(=O)Oc1ccc(F)cc1)[C@@H]1CN(C(=O)C2CCN(c3ccc(Cl)cn3)CC2)C[C@H]1c1ccc(Cl)c(Cl)c1 [Example 308, [(3S,4R)-1-(5′-Chloro-3,4,5,6-tetrahydro-2H-[1,2′]bipyridinyl-4-carbonyl)-4-(3,4-dichloro-phenyl)-pyrrolidin-3-yl]-methyl-carbamic acid 4-fluoro-phenyl ester] | 0.2 nM
COc1ccc(OC(=O)N(C)[C@H]2CN(C(=O)C3CCN(C(=O)C4(C)CC4)CC3)C[C@@H]2c2ccc(Cl)c(Cl)c2)cc1 (racemic) [Example 15, rac-{(3R,4S)-4-(3,4-Dichloro-phenyl)-1-[1-(1-methyl-cyclopropanecarbonyl)-piperidine-4-carbonyl]-pyrrolidin-3-yl}-methyl-carbamic acid p-methoxyphenyl ester] | 2.5 nM
CN(C(=O)Oc1ccc(F)cc1)[C@@H]1CN(C(=O)C2CCN(c3ccc(F)cn3)CC2)C[C@H]1c1ccc(Cl)c(F)c1 [Example 311, [(3S,4R)-4-(4-Chloro-3-fluoro-phenyl)-1-(5′-fluoro-3,4,5,6-tetrahydro-2H-[1,2′]bipyridinyl-4-carbonyl)-pyrrolidin-3-yl]-methyl-carbamic acid 4-fluoro-phenyl ester] | 0.9 nM
CN(C(=O)Oc1ccc(F)cc1)[C@H]1CN(C(=O)C2CCN(c3nncs3)CC2)C[C@@H]1c1ccc(Cl)c(Cl)c1 (racemic) [Example 78, rac-[(3R,4S)-4-(3,4-Dichloro-phenyl)-1-(1-[1,3,4]thiadiazol-2-yl-piperidine-4-carbonyl)-pyrrolidin-3-yl]-methyl-carbamic acid 4-fluoro-phenyl ester] | 1.5 nM
CN(C(=O)OCc1ccc(F)cc1)[C@H]1CN(C(=O)C2CCN(C(=O)C3(C)CC3)CC2)C[C@@H]1c1ccc(Cl)c(Cl)c1 (racemic) [Example 95, rac-{(3R,4S)-4-(3,4-Dichloro-phenyl)-1-[1-(1-methyl-cyclopropanecarbonyl)-piperidine-4-carbonyl]-pyrrolidin-3-yl}-methyl-carbamic acid 4-fluoro-benzyl ester] | 5.8 nM
CN(C(=O)Oc1ccc(F)cc1)[C@@H]1CN(C(=O)C2CCN(C(=O)C3CC3(C)C)CC2)C[C@H]1c1ccc(Cl)c(Cl)c1 (stereo partly drawn) [Example 278, {(3S,4R)-4-(3,4-Dichloro-phenyl)-1-[1-(2,2-dimethyl-cyclopropanecarbonyl)-piperidine-4-carbonyl]-pyrrolidin-3-yl}-methyl-carbamic acid 4-fluoro-phenyl ester] | 0.6 nM
CN(C(=O)Oc1ccc(F)cc1)[C@@H]1CN(C(=O)C2CCN(C(=O)c3ccc(F)cn3)CC2)C[C@H]1c1ccc(Cl)cc1 [Example 262, {(3S,4R)-4-(4-Chloro-phenyl)-1-[1-(5-fluoro-pyridine-2-carbonyl)-piperidine-4-carbonyl]-pyrrolidin-3-yl}-methyl-carbamic acid 4-fluoro-phenyl ester] | 3.9 nM
CCC(C)(C)OC(=O)N(C)[C@@H]1CN(C(=O)C2CCN(c3ccc(C#N)cn3)CC2)C[C@H]1c1ccc(Cl)cc1 [Example 234, [(3S,4R)-4-(4-Chloro-phenyl)-1-(5′-cyano-3,4,5,6-tetrahydro-2H-[1,2′]bipyridinyl-4-carbonyl)-pyrrolidin-3-yl]-methyl-carbamic acid 1,1-dimethyl-propyl ester] | 79.4 nM
CN(C(=O)Oc1ccc(F)cc1)[C@@H]1CN(C(=O)C2CCN(C(=O)OC(C)(C)C)C2)C[C@H]1c1ccc(Cl)cc1 (stereo partly drawn) [Example 151, 3-{(3R,4S)-3-(4-Chloro-phenyl)-4-[(4-fluoro-phenoxycarbonyl)-methyl-amino]-pyrrolidine-1-carbonyl}-pyrrolidine-1-carboxylic acid tert-butyl ester] | 18.2 nM
CN(C(=O)Oc1ccc(F)cc1)[C@@H]1CN(C(=O)C2CCN(c3ccc(C(F)(F)F)cn3)CC2)C[C@H]1c1ccc(Cl)cc1 [Example 181, [(3S,4R)-4-(4-Chloro-phenyl)-1-(5′-trifluoromethyl-3,4,5,6-tetrahydro-2H-[1,2′]bipyridinyl-4-carbonyl)-pyrrolidin-3-yl]-methyl-carbamic acid 4-fluoro-phenyl ester] | 2.8 nM
CN(C(=O)Oc1ccc(F)cc1)[C@@H]1CN(C(=O)C2CCN(C(=O)C3CC(F)(F)C3)CC2)C[C@H]1c1ccc(Cl)c(Cl)c1 [Example 268, {(3S,4R)-4-(3,4-Dichloro-phenyl)-1-[1-(3,3-difluoro-cyclobutanecarbonyl)-piperidine-4-carbonyl]-pyrrolidin-3-yl}-methyl-carbamic acid 4-fluoro-phenyl ester] | 0.6 nM
CN(C(=O)Oc1ccc(F)cc1)[C@@H]1CN(C(=O)C2CCN(c3ccc(Cl)cn3)CC2)C[C@H]1c1ccc(Cl)cc1 [Example 199, [(3S,4R)-4-(4-Chloro-phenyl)-1-(5′-chloro-3,4,5,6-tetrahydro-2H-[1,2′]bipyridinyl-4-carbonyl)-pyrrolidin-3-yl]-methyl-carbamic acid 4-fluoro-phenyl ester] | 0.9 nM
CN(C(=O)Oc1ccc(C#N)cc1)[C@@H]1CN(C(=O)C2CCN(c3ccc(C#N)cn3)CC2)C[C@H]1c1ccc(Cl)cc1 [Example 228, [(3S,4R)-4-(4-Chloro-phenyl)-1-(5′-cyano-3,4,5,6-tetrahydro-2H-[1,2′]bipyridinyl-4-carbonyl)-pyrrolidin-3-yl]-methyl-carbamic acid 4-cyano-phenyl ester] | 0.8 nM
CN(C(=O)Oc1ccc(F)cc1)[C@@H]1CN(C(=O)C2CCN(C(=O)C3CC(F)C3)CC2)C[C@H]1c1ccc(Cl)cc1 (stereo partly drawn) [Example 249, {(3S,4R)-4-(4-Chloro-phenyl)-1-[1-(3-fluoro-cyclobutanecarbonyl)-piperidine-4-carbonyl]-pyrrolidin-3-yl}-methyl-carbamic acid 4-fluoro-phenyl ester] | 1.9 nM

Same assay, conditions: hNK-3 receptor affinity; membranes from HEK293 cells transiently expressing recombinant human NK3 receptor; [3H]SR142801; Cheng-Prussoff; read-out: Data Ki

Ki | Compound
4.4 nM | CN(C(=O)OCC1(C)CC1)[C@H]1CN(C(=O)C2CCN(C(=O)C3(C)CC3)CC2)C[C@@H]1c1ccc(Cl)c(Cl)c1 (racemic) [Example 91, rac-{(3R,4S)-4-(3,4-Dichloro-phenyl)-1-[1-(1-methyl-cyclopropanecarbonyl)-piperidine-4-carbonyl]-pyrrolidin-3-yl}-methyl-carbamic acid 1-methyl-cyclopropylmethyl ester]
1 nM | CN(C(=O)OCC1(C)CC1)[C@H]1CN(C(=O)C2CCN(C(=O)C3(C)CC3)CC2)C[C@@H]1c1ccc(Cl)c(Cl)c1 [Example 106, {(3R,4S)-4-(3,4-Dichloro-phenyl)-1-[1-(1-methyl-cyclopropanecarbonyl)-piperidine-4-carbonyl]-pyrrolidin-3-yl}-methyl-carbamic acid 1-methyl-cyclopropylmethyl ester]
14.7 nM | CN(C(=O)OC1CCCCC1)[C@@H]1CN(C(=O)C2CCN(C(=O)C3(C)CC3)CC2)C[C@H]1c1ccc(Cl)cc1 [Example 152, {(3S,4R)-4-(4-Chloro-phenyl)-1-[1-(1-methyl-cyclopropanecarbonyl)-piperidine-4-carbonyl]-pyrrolidin-3-yl}-methyl-carbamic acid cyclohexyl ester]
3.2 nM | CN(C(=O)OC1CCCCC1)[C@@H]1CN(C(=O)C2CCN(c3ccc(C#N)cn3)CC2)C[C@H]1c1ccc(Cl)cc1 [Example 143, [(3S,4R)-4-(4-Chloro-phenyl)-1-(5′-cyano-3,4,5,6-tetrahydro-2H-[1,2′]bipyridinyl-4-carbonyl)-pyrrolidin-3-yl]-methyl-carbamic acid cyclohexyl ester]
2.7 nM | CN(C(=O)O[C@]1(C)CC[C@@H](C)CC1)[C@@H]1CN(C(=O)C2CCN(c3ccc(C#N)cn3)CC2)C[C@H]1c1ccc(Cl)cc1 [Example 242, [(3S,4R)-4-(4-Chloro-phenyl)-1-(5′-cyano-3,4,5,6-tetrahydro-2H-[1,2′]bipyridinyl-4-carbonyl)-pyrrolidin-3-yl]-methyl-carbamic acid 1,4-dimethyl-cyclohexyl ester]
67 nM | CN(C(=O)OCCCC(F)(F)F)[C@H]1CN(C(=O)C2CCN(C(=O)C3(C)CC3)CC2)C[C@@H]1c1ccc(Cl)c(Cl)c1 [Example 81, {(3R,4S)-4-(3,4-Dichloro-phenyl)-1-[1-(1-methyl-cyclopropanecarbonyl)-piperidine-4-carbonyl]-pyrrolidin-3-yl}-methyl-carbamic acid 4,4,4-trifluoro-butyl ester]
